The supplement of paper PMC10307832

Assays:
Assay in all cases: relative viability (nuclei count vs DMSO), 5 days (fraction); higher = more cells survive
A-427 = test system: A-427
Procedure, shortened: (§1)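 Relative viability is defined as nuclei in treated wells over nuclei in vehicle wells. Duplicate plates were run and medians reported. Lung cancer cell lines in 1536-well plates were dosed by pin tool one day after seeding, with one drug or with a fixed anchor-drug dose plus five library-drug doses (not always all listed) in √10 steps, and nuclei were counted after 5 days.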

COR-L 105 = test system: COR-L 105
Procedure, shortened: as §1

EPLC-272H = test system: EPLC-272H
Procedure, shortened: as §1

HCC-366 = test system: HCC-366
Procedure, shortened: as §1

HCC-78 = test system: HCC-78
Procedure, shortened: as §1

HOP-62 = test system: HOP-62
Procedure, shortened: as §1

LC-2-ad = test system: LC-2-ad
Procedure, shortened: as §1

LU99A = test system: LU99A
Procedure, shortened: as §1

LXF-289 = test system: LXF-289
Procedure, shortened: as §1

NCI-H1666 = test system: NCI-H1666
Procedure, shortened: as §1

NCI-H1793 = test system: NCI-H1793
Procedure, shortened: as §1

NCI-H1915 = test system: NCI-H1915
Procedure, shortened: as §1

NCI-H1944 = test system: NCI-H1944
Procedure, shortened: as §1

NCI-H2009 = test system: NCI-H2009
Procedure, shortened: as §1

NCI-H2085 = test system: NCI-H2085
Procedure, shortened: as §1

NCI-H2170 = test system: NCI-H2170
Procedure, shortened: as §1

NCI-H358 = test system: NCI-H358
Procedure, shortened: as §1

NCI-H460 = test system: NCI-H460
Procedure, shortened: as §1

SK-LU-1 = test system: SK-LU-1
Procedure, shortened: as §1

SW 900 = test system: SW 900
Procedure, shortened: as §1

UMC-11 = test system: UMC-11
Procedure, shortened: as §1

O=c1cc(N2CCOCC2)oc2c(-c3cccc4c3sc3ccccc34)cccc12 + Cc1cc(Nc2cc(N3CCN(C)CC3)nc(Sc3ccc(NC(=O)C4CC4)cc3)n2)n[nH]1 [Tozasertib] (partner 0.1 µM)
relative viability (A-427; first compound 0.01 µM): 0.232
relative viability (A-427; first compound 0.03162 µM): 0.201
relative viability (A-427; first compound 0.1 µM): 0.212
relative viability (A-427; first compound 0.3162 µM): 0.223
relative viability (A-427; first compound 1 µM): 0.212
relative viability (COR-L 105; first compound 0.01 µM): 0.346
relative viability (COR-L 105; first compound 0.03162 µM): 0.286
relative viability (COR-L 105; first compound 0.1 µM): 0.373
relative viability (COR-L 105; first compound 0.3162 µM): 0.303
relative viability (COR-L 105; first compound 1 µM): 0.299
relative viability (EPLC-272H; first compound 0.01 µM): 0.288
relative viability (EPLC-272H; first compound 0.03162 µM): 0.327
relative viability (EPLC-272H; first compound 0.3162 µM): 0.206
relative viability (EPLC-272H; first compound 1 µM): 0.253
relative viability (HCC-366; first compound 0.01 µM): 0.123
relative viability (HCC-366; first compound 0.03162 µM): 0.125
relative viability (HCC-366; first compound 0.1 µM): 0.102
relative viability (HCC-366; first compound 0.3162 µM): 0.211
relative viability (HCC-366; first compound 1 µM): 0.121
relative viability (HCC-78; first compound 0.01 µM): 0.417
relative viability (HCC-78; first compound 0.03162 µM): 0.359
relative viability (HCC-78; first compound 0.1 µM): 0.417
relative viability (HCC-78; first compound 0.3162 µM): 0.41
relative viability (HCC-78; first compound 1 µM): 0.452
relative viability (HOP-62; first compound 0.01 µM): 0.336
relative viability (HOP-62; first compound 0.03162 µM): 0.315
relative viability (HOP-62; first compound 0.1 µM): 0.402
relative viability (HOP-62; first compound 0.3162 µM): 0.325
relative viability (HOP-62; first compound 1 µM): 0.382
relative viability (LC-2-ad; first compound 0.01 µM): 0.486
relative viability (LC-2-ad; first compound 0.03162 µM): 0.46
relative viability (LC-2-ad; first compound 0.1 µM): 0.478
relative viability (LC-2-ad; first compound 0.3162 µM): 0.443
relative viability (LC-2-ad; first compound 1 µM): 0.445
relative viability (LU99A; first compound 0.01 µM): 0.262
relative viability (LU99A; first compound 0.03162 µM): 0.279
relative viability (LU99A; first compound 0.1 µM): 0.273
relative viability (LU99A; first compound 0.3162 µM): 0.303
relative viability (LU99A; first compound 1 µM): 0.267
relative viability (LXF-289; first compound 0.01 µM): 0.235
relative viability (LXF-289; first compound 0.03162 µM): 0.216
relative viability (LXF-289; first compound 0.1 µM): 0.218
relative viability (LXF-289; first compound 0.3162 µM): 0.174
relative viability (LXF-289; first compound 1 µM): 0.197
relative viability (NCI-H1666; first compound 0.01 µM): 0.512
relative viability (NCI-H1666; first compound 0.03162 µM): 0.56
relative viability (NCI-H1666; first compound 0.1 µM): 0.579
relative viability (NCI-H1666; first compound 0.3162 µM): 0.596
relative viability (NCI-H1666; first compound 1 µM): 0.567
relative viability (NCI-H1793; first compound 0.01 µM): 0.352
relative viability (NCI-H1793; first compound 0.1 µM): 0.324
relative viability (NCI-H1793; first compound 0.3162 µM): 0.312
relative viability (NCI-H1793; first compound 1 µM): 0.276
relative viability (NCI-H1915; first compound 0.01 µM): 0.419
relative viability (NCI-H1915; first compound 0.03162 µM): 0.438
relative viability (NCI-H1915; first compound 0.1 µM): 0.485
relative viability (NCI-H1915; first compound 0.3162 µM): 0.456
relative viability (NCI-H1915; first compound 1 µM): 0.422
relative viability (NCI-H1944; first compound 0.01 µM): 0.246
relative viability (NCI-H1944; first compound 0.03162 µM): 0.249
relative viability (NCI-H1944; first compound 0.1 µM): 0.241
relative viability (NCI-H1944; first compound 0.3162 µM): 0.245
relative viability (NCI-H1944; first compound 1 µM): 0.244
relative viability (NCI-H2009; first compound 0.01 µM): 0.747
relative viability (NCI-H2009; first compound 0.03162 µM): 0.704
relative viability (NCI-H2009; first compound 0.1 µM): 0.8
relative viability (NCI-H2009; first compound 0.3162 µM): 0.708
relative viability (NCI-H2009; first compound 1 µM): 0.708
relative viability (NCI-H2085; first compound 0.01 µM): 0.841
relative viability (NCI-H2085; first compound 0.03162 µM): 0.813
relative viability (NCI-H2085; first compound 0.1 µM): 0.741
relative viability (NCI-H2085; first compound 0.3162 µM): 0.73
relative viability (NCI-H2085; first compound 1 µM): 0.77
relative viability (NCI-H2170; first compound 0.01 µM): 0.741
relative viability (NCI-H2170; first compound 0.03162 µM): 0.673
relative viability (NCI-H2170; first compound 0.1 µM): 0.758
relative viability (NCI-H2170; first compound 0.3162 µM): 0.801
relative viability (NCI-H2170; first compound 1 µM): 0.707
relative viability (NCI-H358; first compound 0.01 µM): 0.113
relative viability (NCI-H358; first compound 0.03162 µM): 0.102
relative viability (NCI-H358; first compound 0.1 µM): 0.115
relative viability (NCI-H358; first compound 0.3162 µM): 0.0946
relative viability (NCI-H358; first compound 1 µM): 0.101
relative viability (NCI-H460; first compound 0.01 µM): 0.342
relative viability (NCI-H460; first compound 0.03162 µM): 0.479
relative viability (NCI-H460; first compound 0.1 µM): 0.511
relative viability (NCI-H460; first compound 0.3162 µM): 0.417
relative viability (NCI-H460; first compound 1 µM): 0.465
relative viability (SK-LU-1; first compound 0.01 µM): 0.314
relative viability (SK-LU-1; first compound 0.03162 µM): 0.298
relative viability (SK-LU-1; first compound 0.1 µM): 0.393
relative viability (SK-LU-1; first compound 0.3162 µM): 0.308
relative viability (SK-LU-1; first compound 1 µM): 0.329
relative viability (SW 900; first compound 0.01 µM): 0.505
relative viability (SW 900; first compound 0.03162 µM): 0.651
relative viability (SW 900; first compound 0.1 µM): 0.656
relative viability (SW 900; first compound 0.3162 µM): 0.574
relative viability (SW 900; first compound 1 µM): 0.548
relative viability (UMC-11; first compound 0.01 µM): 0.194
relative viability (UMC-11; first compound 0.03162 µM): 0.208
relative viability (UMC-11; first compound 0.1 µM): 0.202
relative viability (UMC-11; first compound 0.3162 µM): 0.209
relative viability (UMC-11; first compound 1 µM): 0.202
